From patent publication US6825230B2, “Spiro and dispiro 1,2,4-trixolane antimalarials” (Medicines for Malaria Venture MMV, priority 2002, dated 2004)
≈ marks a conversion by molar mass, not a printed value.

Assays:
[1] = system: Schistosoma mansoni adult worms (49-day-old); assay: Effect on adult schistosomes (49-day-old) in infected mice; type: in vivo
Method: Mice were infected with 100 Schistosoma mansoni cercariae on day 49 post-treatment. Each group was treated per os with OZ compounds at single doses of 200, 400, and 600 mg/kg. Untreated mice served as the control. All groups were killed 4 weeks after treatment and the liver and intestine were removed and separated. The liver and intestine were compressed and alive male and female worms could be seen and counted.

[2] = system: ANKA strain of Plasmodium berghei; assay: Single dose ED50/ED90/ED99 determination in infected mice; type: in vivo
How it was run: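 Moro SPF or NMRI mice (three per group) infected with P. berghei ANKA were dosed once on day 1 post-infection in SSV (0.5% CMC, 0.5% benzyl alcohol, 0.4% Tween 80, 0.9% NaCl). Parasitemia reduction was scored on day 3; ED values (mg/kg) came from nonlinear fitting.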

[3] = system: chloroquine-resistant K1 strain of P. falciparum; assay: In vitro antimalarial semiautomated microdilution assay ([3H]-hypoxanthine incorporation), K1 strain; type: cell-based, Plasmodium falciparum; details: Plasmodium falciparum; chloroquine-resistant K1 strain, 72 h incubation; read-out: IC50 (ng/ml) K1
How it was run: (§1)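 Asynchronous stock-culture parasites (intraerythrocytic forms), serial compound dilutions; readout [3H]-hypoxanthine uptake; IC50 via Logit regression.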

P. berghei ANKA strain [4] = assay: Divided 3x10 mg/kg vs single 1x30 mg/kg po dose in infected mice; type: in vivo, Plasmodium berghei
[5] = Pharmacokinetics in rats (IV and oral dosing); details: rat, in vivo
Description: (§2) Artesunate is listed as a reference compound.

[6] = Pharmacokinetics in dogs (IV and oral dosing); details: in vivo, dog; for bioavailability: some values marked (V), not defined
Description: as §2

[7] = system: ANKA strain of P. berghei; assay: Single dose STI in vivo screen in infected mice; design: species or system Plasmodium berghei; details: 10 mg/kg
P. berghei ANKA strain [8] = assay: Divided 3x3 mg/kg and 3x1 mg/kg po doses in infected mice; type: in vivo, Plasmodium berghei
How it was run: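 Male NMRI mice were infected i.v. with 2×10^7 P. berghei-parasitized erythrocytes on day 0, then dosed orally in SSV vehicle on days 1, 2 and 3 post-infection.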

[9] = system: chloroquine-sensitive NF54 strain of P. falciparum; assay: In vitro antimalarial semiautomated microdilution assay ([3H]-hypoxanthine incorporation), NF54 strain; type: cell-based, Plasmodium falciparum; details: Plasmodium falciparum; chloroquine-sensitive NF54 strain, 72 h incubation; read-out: IC50 (ng/ml) NF54
How it was run: as §1

P. berghei ANKA strain [10] = assay: Prophylactic activity, single 100 mg/kg po at various times before infection; type: in vivo, Plasmodium berghei

With NC[C@H]1CC[C@]2(CC1)OOC1(O2)C2CC3CC(C2)CC1C3 (stereo partly drawn) [OZ209] the “% reduction of adult worms growth at day 49 after per os application of 200 mg/kg, TWR (%)” value ([1]; single 200 mg/kg per os, 49-day-old adults, total worm reduction rate) was 39%, the “Adult worms day 49, per os 200 mg/kg, DEAD WORM (%)” value ([1]; single 200 mg/kg per os, percentage of dead worm in the liver) was 34% and the “% reduction of adult worms growth at day 49 after per os application of 400 mg/kg, TWR (%)” value ([1]; single 400 mg/kg per os, 49-day-old adults, total worm reduction rate) was 16%. The “Adult worms day 49, per os 400 mg/kg, DEAD WORM (%)” value ([1]; single 400 mg/kg per os, percentage of dead worm in the liver) was 28%, the “% reduction of adult worms growth at day 49 after per os application of 600 mg/kg, TWR (%)” value ([1]; single 600 mg/kg per os, 49-day-old adults, total worm reduction rate) was 41/ % and the “Adult worms day 49, per os 600 mg/kg, DEAD WORM (%)” value ([1]; single 600 mg/kg per os, percentage of dead worm in the liver) was 21++ %. For the same compound, the ED50 ([2]; Plasmodium berghei, single dose po in SSV on day 1 post-infection, parasitemia day 3, nonlinear fitting, read-out: ED50) was 0.55 mg/kg, the “ED90” value ([2]; po) was 1.4 mg/kg and the “ED99” value ([2]; single dose po in SSV on day 1 post-infection, parasitemia day 3, nonlinear fitting) was 3.0 mg/kg. The IC50 [3] was 0.21 ng/mL (≈ 0.716 nM), the “Survival (days) 3 × 10 mg/kg p.o. SSV” value (P. berghei ANKA strain [4]; 10 mg/kg po on days 1, 2, 3 post-infection) was over 30 days and the “Activity (%) 3 × 10 mg/kg p.o. SSV” value (P. berghei ANKA strain [4]; po, 10 mg/kg, 96 h) was 100%. The “Cures 3 × 10 mg/kg p.o. SSV” value (P. berghei ANKA strain [4]; po, 10 mg/kg, 720 h) was 3\3, the “Activity (%) 1 × 30 mg/kg p.o. SSV” value (P. berghei ANKA strain [4]; po, 30 mg/kg) was 100% and the “Cures 1 × 30 mg/kg p.o. SSV” value (P. berghei ANKA strain [4]; po, 30 mg/kg, 720 h) was 0/5. For the same compound, the “Survival (days) 1 × 30 mg/kg p.o. SSV” value (P. berghei ANKA strain [4]; single 30 mg/kg po on day 1 post-infection) was over 30 days, the half-life ([5]; iv, 10 mg/kg) was 2.5 h and the bioavailability ([5]; po, 10 mg/kg) was 12.4%. The bioavailability ([5]; po, 25 mg/kg) was 22.4%, the half-life ([5]; po, 25 mg/kg) was 1.69 h and the half-life ([6]; IV 10 mg/kg) was 3.05 h. For the same compound, the half-life ([6]; oral 10 mg/kg) was 2.12 h, the bioavailability ([6]; oral 10 mg/kg, read-out: Dog Oral Bioavailability 10 mg/kg) was 24.5% and the bioavailability ([6]; oral 25 mg/kg, read-out: Dog Oral Bioavailability 25 mg/kg) was 15.9%. The “Survival (days) 10 mg/kg po” value ([7]; single 10 mg/kg po in 3% ethanol and 7% Tween 80, untreated 6-7 days) was 9.5 days, the “Activity (%) 10 mg/kg po” value ([7]; single 10 mg/kg po in 3% ethanol and 7% Tween 80 on day 1 post-infection, percent reduction in parasitemia on day 3) was 99.94% and the “Survival (days) 10 mg/kg SSV po” value ([7]; single 10 mg/kg po in SSV, untreated 6-7 days) was 10.0 days. The “Activity (%) 10 mg/kg SSV po” value ([7]; single 10 mg/kg po in standard suspending vehicle (SSV) on day 1 post-infection, percent reduction in parasitemia on day 3) was 99.96%, the “Survival (days) 10 mg/kg sc” value ([7]; single 10 mg/kg sc in 3% ethanol and 7% Tween 80, untreated 6-7 days) was 12.5 days and the “Activity (%) 10 mg/kg sc” value ([7]; single 10 mg/kg sc in 3% ethanol and 7% Tween 80 on day 1 post-infection, percent reduction in parasitemia on day 3) was 99.97%. For the same compound, the “Activity at the 3×3 mg/kg dose” value (P. berghei ANKA strain [8]; 3 mg/kg po (SSV) on days 1, 2, 3 post-infection, parasitemia reduction on day 4) was 100%, the “Survival” value (P. berghei ANKA strain [8]; 3 × 1 mg/kg p.o. SSV on days 1, 2, 3 post-infection) was 9.4 days and the “Survival” value (P. berghei ANKA strain [8]; 3 × 3 mg/kg p.o. SSV on days 1, 2, 3 post-infection) was 16.4 days. For the same compound, the “Activity (%)” value (P. berghei ANKA strain [8]; 3 × 3 mg/kg p.o. SSV on days 1, 2, 3 post-infection, percent reduction of parasitemia vs control on day 4) was 100%, the “Activity (%)” value (P. berghei ANKA strain [8]; po, 1 mg/kg, 96 h) was 99.51% and the Cures (P. berghei ANKA strain [8]; po, 3 mg/kg, 720 h) was 0\5. For the same compound, the IC50 [9] was 0.32 ng/mL (≈ 1.09 nM), the “Prophylactic Activity (%) 72 h” value (P. berghei ANKA strain [10]; po, 100 mg/kg) was 99.92% and the “Duration of prophylactic protection” value (P. berghei ANKA strain [10]; single 100 mg/kg po) was 3 days. For the same compound, the “Prophylactic Activity (%) 24 h” value (P. berghei ANKA strain [10]; single 100 mg/kg po 24 h before infection, parasitemia reduction on day 3 post-infection) was 100%, the “Prophylactic Activity (%) 48 h” value (P. berghei ANKA strain [10]; single 100 mg/kg po 48 h before infection, parasitemia reduction on day 3 post-infection) was 99.9% and the “Prophylactic Activity (%) 0 h” value (P. berghei ANKA strain [10]; single 100 mg/kg po at 0 h, parasitemia reduction on day 3 post-infection) was 100%.
